Experimental data taken from patent US7144867B2, “Anticancer glycoside compounds” (priority 2004, dated 2006).

What was measured:
[1] = system: DLD-1 (human colon adenocarcinoma); assay: cells; conditions: for Percent Growth (Mean ± SEM, n = 2): 72-hour
Procedure: Test Substance and Concentration. Frondoside A (CBR-24) was dissolved in 100% DMSO and then diluted with sterile distilled water to obtain initial working solutions of 10000, 1000, 100, 10, and 1 μM in 40% DMSO. A 100-fold dilution was further made in culture media to generate final assay concentration of 100, 10, 1, 0.1 and 0.01 μM in 0.4% of DMSO.
Cell Line and Culture Media. The tumor cell line DLD-1 (human colon adenocarcinoma), obtained from American Type Culture Collection (ATCC CCL-221), was incubated in 95% air-5% CO2 gas mixture at 37° C. The culture medium used was RPMI 1640 with 10% fetal bovine serum, which was supplemented with 1% Antibiotic-Antimycotic.
(§1) Evaluation of anti-proliferation for test substances. Aliquots of 100 μl of cell suspension (about 2.5×10^3 cells/well) were placed in 96-well microtiter plates in an atmosphere of 5% CO2 at 37° C. […] Thus, the final concentration of DMSO was 0.4%. The Frondoside A was evaluated for possible inhibitory effects on cell proliferation at concentrations of 100, 10, 1, 0.1 and 0.01 μM. At the end of incubation, 20 μl of 90% alamarBlue reagent was added to each well for another 6 hour incubation before detection of cell viability by fluorescent intensity. Fluorescent intensity was measured using a Spectrafluor Plus plate reader with excitation at 530 nm and emission at 590 nm.
(§2) Determination of IC50, TGI and LC50. The measured results were calculated by the following formula: PG(%)=100%×(Mean Ftest−Mean Ftime0)/(Mean Fctrl−Mean Ftime0) If (Mean Ftest−Mean Ftime0)<0, then PG (%)=100%×(Mean Ftest−Mean Ftime0)/(Mean Ftime0−Mean Fblank) Where: • PG: percent growth • Mean Ftime0=The average of 2 measured fluorescent intensities of reduced alamarBlue at the time just before exposure of cells to the test substance. • Mean Ftest=The average of 2 measured fluorescent intensities of alamarBlue after 72-hour exposure of cells to the test substance. • Mean Fctrl=The average of 2 measured fluorescent intensities of alamarBlue after 72-hour incubation without the test substance. • Mean Fblank=The average of 2 measured fluorescent intensities of alamarBlue in medium without cells after 72-hour incubation.

[2] = system: caspase 3; assay: Western blotting, caspase 3 in AsPC-1 cells; format: cell-based, human; conditions: 4 μg/mL, time-dependent (FIG. 3)
Procedure: Western blotting. Cells were seeded into flasks and cultured to 50% to 60% confluence for 24 hours. Cells were then placed in serum-free medium with or without 4 μg/mL frondoside A for periods of 0, 24, 48 and 72 hours respectively. Proteins were extracted from attached and floating cells in lysis buffer containing 4% SDS. Protein concentrations were determined using the bicinchoninic acid assay with BSA as standard. Western blotting was carried out. In brief, equal amounts of protein in the cell lysates were separated on 15% SDS-PAGE and the proteins were transferred onto nitrocellulose membranes. After blocking non-specific sites with dried milk, membranes were incubated with the appropriate dilution of primary antibody. Membranes were then incubated with a horseradish peroxidase conjugated secondary antibody. Proteins were detected using an enhanced chemiluminescence detection system.

[3] = system: PC-3 (human prostate adenocarcinoma); assay: cells; conditions: for Percent Growth (Mean ± SEM, n = 2): 72-hour
Procedure: Test Substance and Concentration. Frondoside A (FAS) was dissolved in 100% DMSO and then diluted with sterile distilled water to obtain initial working solutions of 1000, 300, 100, 30, and 10 μM in 40% DMSO. […]
Cell Line and Culture Media. The tumor cell line PC-3 (human prostate adenocarcinoma), obtained from American Type Culture Collection (ATCC CRL-1435), was incubated in air atmosphere of 5% CO2 at 37° C. The culture medium used was F-12K Nutrient Mixture (Kaighn's Modification) with 3% fetal bovine serum, which was supplemented with 1% Antibiotic-Antimycotic.
as §1, with “of” for “of 100,”, “10, 3,” for “10,”, “1, 0.3 and” for “1,”, “0.1” for “0.1 and 0.01”, “6-hour” for “6 hour”
as §2, with “was” for “were”

[4] = system: AsPC-1 cells; assay: Annexin V assay; format: cell-based, human; conditions: 4 μg/mL, within 3 hours
Procedure: Annexin V assay. […] The cells were then rinsed with PBS and 500 μL of assay buffer once. Then, 200 μL of assay buffer, 4 μL of annexin-V FITC, and 20 μL of propidium iodide were added to each coverslip. The coverslip were then incubated at room temperature for 15 min in the dark and washed once with PBS. Cells were finally viewed under fluorescence microscope using a dual filter set for FITC and rhodamine, and pictures were taken using a Kodak DC 120 digital zoom camera (Eastman Kodak Company, Rochester, N.Y.).

SMILES: COC1C(O)C(CO)OC(OC2C(O)COC(OC3C(C)OC(OC4C(OC5CCC6(C)C7CCC89C(=O)OC(C)(CCCC(C)C)C8C(OC(C)=O)CC9(C)C7=CCC6C5(C)C)OCC(OS(=O)(=O)[O-])C4O)C(OC4OCC(O)C(O)C4O)C3O)C2O)C1O.[Na+] [Frondoside A, 3-O-methyl-β-D-glucopyranosyl-(1→3)-β-D-xylopyranosyl-(1→4)-[β-D-xylopyranosyl-(1→2)]-β-D-quinovopyranosyl-(1→2)-4-O-sodium sulfate-β-D-xylopyranosyl-3-O-holost-7(8)-en-3β-ol-16β-O-acetate]
- growth inhibition of DLD-1 cells relative to the vehicle-treated control ([1]; 10 μM and 100 μM (≦50% of cell proliferation)): significant growth inhibition
- Percent Growth (Mean ± SEM, n = 2) ([1]; DLD-1, 0.01 μM): 93 ± 5%
- Percent Growth (Mean ± SEM, n = 2) ([1]; DLD-1, 0.1 μM): 84 ± 11%
- Percent Growth (Mean ± SEM, n = 2) ([1]; DLD-1, 1 μM): 79 ± 5%
- Percent Growth (Mean ± SEM, n = 2) ([1]; DLD-1, 10 μM): 12 ± 0%
- Percent Growth (Mean ± SEM, n = 2) ([1]; DLD-1, 100 μM): −79 ± 5%
- TGI (Total Growth Inhibition) ([1]; DLD-1, semi-quantitative, nonlinear regression): 12000 nM
- IC50 ([1]; read-out: IC50 (50% Inhibition Concentration), DLD-1, semi-quantitative, nonlinear regression): 3600 nM
- CC50 ([1]; read-out: LC50 (50% Lethal Concentration), DLD-1, semi-quantitative, nonlinear regression): 41000 nM
- activation of caspase 3 (cleavage of procaspase 3) [2]: cleaved into products of lower molecular weight
- Percent Growth (Mean ± SEM, n = 2) ([3]; PC-3, 0.1 μM): 98 ± 3%
- Percent Growth (Mean ± SEM, n = 2) ([3]; PC-3, 0.3 μM): 103 ± 1%
- Percent Growth (Mean ± SEM, n = 2) ([3]; PC-3, 1 μM): 98 ± 3%
- Percent Growth (Mean ± SEM, n = 2) ([3]; PC-3, 3 μM): −98 ± 1%
- Percent Growth (Mean ± SEM, n = 2) ([3]; PC-3, 10 μM): −97 ± 1%
- TGI (Total Growth Inhibition) ([3]; PC-3, semi-quantitative, nonlinear regression): 1700 nM
- growth inhibition of PC-3 relative to the vehicle treated control group ([3]; between 1 and 10 μM): significant growth inhibition
- IC50 ([3]; read-out: IC50 (50% Inhibition Concentration), PC-3, semi-quantitative, nonlinear regression): 1500 nM
- CC50 ([3]; read-out: LC50 (50% Lethal Concentration), PC-3, semi-quantitative, nonlinear regression): 2000 nM
- Annexin V binding [4]: Annexin V binding was observed
